In brackets after ≈: the same amount, converted by molar mass.
Conditions: buffer; pH 7.4; 200.0 µM

| Structure (SMILES) | solubility kinetic [µg/mL] |
| --- | --- |
| CC(C)C(NC(=O)c1ccco1)C(=O)NCc1ccc(C(=O)O)cc1 (stereo not given) | > 51.7 |
| CC(=O)N1CCN=C1SCc1cccc(C)c1 | 33.7 (≈ 136 µM) |
| O=C(NCc1ccccc1)NC(=O)c1ccc(Cl)cc1 | < 0.3 |
| O=C(Nc1ccccc1)c1ccc(=O)n(Cc2cccc(Cl)c2)c1 | 22.1 (≈ 65.2 µM) |
| Cc1cccc2c(N=O)c(O)n(CCc3ccccc3)c12 | 0.4 (≈ 1.43 µM) |
| O=[N+]([O-])C(/C=C(/Cl)[N+](=O)[O-])=C(N1CCCCC1)N1CCCCC1 | 29.1 (≈ 84.4 µM) |
| COc1cc(C(=O)OCC(=O)Nc2ccc(S(=O)(=O)N3CCCC3)cc2)cc(OC)c1OC | 18.1 (≈ 37.8 µM) |
| Cc1ccc(F)cc1N=Cc1c(O)c2ccccc2oc1=O | < 0.6 |
| CC(=O)C(C)Oc1ccc(Cc2ncc(C(F)(F)F)cc2Cl)cc1 (stereo not given) | 13.1 (≈ 36.6 µM) |
| CC(=O)Nc1ccc(C2NC(=O)CCC2[N+](=O)[O-])cc1 (stereo not given) | 31.7 (≈ 114 µM) |
| CC(=O)Cc1cc2cc([N+](=O)[O-])ccc2oc1=O | > 37.1 |
| NC(=O)c1ccc(NC(=O)COC(=O)c2cc3c(s2)CCC3)cc1 | 8.6 (≈ 25 µM) |
| O=C(COC(=O)CNC(=O)c1ccccc1Cl)NC1CC1 | 37.4 (≈ 120 µM) |
| CCN1c2ccccc2N(C)C1(C)c1ccccc1 (stereo not given) | 21.5 (≈ 85.2 µM) |
| CC(C)(C)c1ccc(-c2nc(C#N)c(NCCCn3ccnc3)o2)cc1 | 1.2 (≈ 3.43 µM) |
| CC1CN(C(=O)/C=C/c2ccccc2Cl)CC(C)O1 (stereo not given) | 36.5 (≈ 130 µM) |
| Cc1ccc(C(=O)N/C(=C\c2ccco2)C(=O)N2CCOCC2)cc1C | > 53.2 |
| Nc1nc(CSc2ccc(Cl)cc2)nc(N2CCCCC2)n1 | 5.6 (≈ 16.7 µM) |
| Cc1ccc(C(=O)NC23CC4CC(CC(C4)C2)C3)c(Cl)c1 | 0.7 (≈ 2.3 µM) |
| Cn1c(=O)oc2cc(S(=O)(=O)NC3CCCCC3)ccc21 | > 46.6 |

| Structure (SMILES) | solubility kinetic [µg/mL] |
| --- | --- |
| CCCn1c(=O)c2[nH]cnc2n(-c2ccc(Cl)cc2)c1=O | 44.9 (≈ 147 µM) |
| CN(CCc1ccccn1)c1ccc([N+](=O)[O-])cn1 | 38.1 (≈ 148 µM) |
| CC(=O)Nc1ccc(S(=O)(=O)NCCC(=O)Nc2cc(C)ccn2)cc1 | > 56.5 |
| CCN1CCN(C(=O)/C=C/c2ccc(C)cc2)CC1 | > 38.8 |
| O=C(COC(=O)c1ccncc1)c1ccc(Br)cc1 | 44 (≈ 137 µM) |
| Nc1nc(F)nc2c1ncn2[C@@H]1O[C@H](CO)[C@@H](O)[C@H]1O | > 42.8 |
| COc1ccc(N2CCN(C(=O)c3cccc(NS(=O)(=O)c4cccc(F)c4)c3)CC2)cc1 | 52.8 (≈ 112 µM) |
| Cc1ccc(Cl)cc1N1C(=O)CC(C)(C)CC1=O | 15.7 (≈ 59.1 µM) |
| O=C(NC(=S)Nc1cccc2cnccc12)c1ccccc1 | 1.2 (≈ 3.9 µM) |
| CCOc1cccc(CN2CCN(Cc3ccc(C)o3)C(CCO)C2)c1O (stereo not given) | > 56.2 |
| COCCn1c(SC2CCOC2=O)nc2ccccc2c1=O (stereo not given) | > 48.1 |
| Cc1noc(C(=O)NC2CCCCC2)c1Cl | 35.6 (≈ 147 µM) |
| OCC[N+]12CCC(CC1)C(C(O)(c1ccccc1)c1ccccc1)C2 (stereo not given) | > 50.8 |
| CC1CCN(C2CCN(C(=O)c3ccccc3F)CC2)CC1 | 34.7 (≈ 114 µM) |
| CN(C)CCCN=Cc1c(O)n(Cc2ccco2)c(=O)[nH]c1=O | 36.4 (≈ 114 µM) |
| COc1ccc(NC(=S)NCCN2CCC(C)CC2)cc1 | > 46.1 |
| Cc1cc(OC(C)C(=O)NCC2CCCO2)cc(C)c1Cl (stereo not given) | 40.7 (≈ 131 µM) |
| O=c1oc2ccccc2c(Nc2ccc(Cl)cc2)c1[N+](=O)[O-] | 0.9 (≈ 2.84 µM) |
| CCOC(=O)c1ccc2ncc(-c3ccccc3)nc2c1 | 0.3 (≈ 1.08 µM) |
| Cc1cccc(N2N=C(C(=O)N3Cc4ccccc4CC3C(N)=O)CCC2=O)c1 (stereo not given) | > 58.6 |

| Structure (SMILES) | solubility kinetic [µg/mL] |
| --- | --- |
| Cn1c(=O)c2c(nc(N3CCc4ccccc4C3)n2C)n(C)c1=O | 43.2 (≈ 133 µM) |
| CC1CCCCC1NC(=O)Cn1c(=O)cnc2ccccc21 (stereo not given) | 5 (≈ 16.7 µM) |
| Cc1ccc(CN2CCN(C3CCC3)CC2CCO)cc1 (stereo not given) | 42.4 (≈ 147 µM) |
| CNC(=S)Nc1ccc(OC(F)(F)F)cc1 | 35.4 (≈ 141 µM) |
| Cc1ccc(S(=O)(=O)Nc2ccncc2)c(C)c1.Cl | > 44.8 |
| O=C(NCCc1c[nH]c2ccccc12)c1ccccc1 | 34.7 (≈ 131 µM) |
| CC(C)c1cc(NCCOCCO)n2c(nc3ccccc32)c1C#N | 7.8 (≈ 23 µM) |
| Cc1ccc(NC(=O)C(=O)NCCCN2CC(C(=O)O)CC2=O)cc1 (stereo not given) | > 52.1 |
| Cc1cc(C)c(C(=O)CSc2nnc(C)c(=O)[nH]2)cc1C | > 45.5 |
| Nc1nc2ccc(C(=O)Nc3ccc(N4CCOCC4)cc3)cc2s1 | 8.7 (≈ 24.5 µM) |
| CN(C)c1ccc(S(=O)(=O)N2CCCCC2)cc1NC(=O)C1=COCCO1 | 12 (≈ 30.3 µM) |
| CC(=O)Nc1cccc(NC(=O)c2cccc3cccnc23)c1 | 19.2 (≈ 62.9 µM) |
| Cc1sc2ncnc(NCCCN3CCCC3=O)c2c1C | > 45.7 |
| COc1ccc(OCCC(=O)OCC(=O)NC2CCCCC2)cc1 | 37 (≈ 110 µM) |
| CC(C)CC(=O)N1CCN(Cc2ccc(C(F)(F)F)cc2)CC1 | 47.2 (≈ 144 µM) |
| CC(C)(C)NC(=O)C1CC(=O)N(CCc2ccc(F)cc2)C1 (stereo not given) | > 46 |
| CS(=O)(=O)N(CC(=O)N1CCCC1)Cc1ccc(F)cc1 | > 47.2 |
| CCNC(=O)N1CCC(c2nc3ccccc3s2)CC1 | > 43.4 |
| O=c1c(Cc2ccccc2)c(O)ccn1C1CCCCCCC1 | 1.5 (≈ 4.82 µM) |
| CCN(CC)C(=O)c1cccc2nc3ccccc3nc12 | > 41.9 |
